For orientation: melting point means the temperature, or range, at which the solid turns liquid.

This note sets out measurements from US7956188B2, “Acetamide compounds as fungicides” (Syngenta Crop Protection, Inc., priority 2004, dated 2011).

In turn, `CSC(Oc1cc(C)c(Br)c(C)c1)C(=O)NC(C)(C)C` (stereo not drawn) [12 (15), 2-(4-bromo-3,5-dimethylphenoxy)-2-methylthio-N-(2-methyl-prop-2-yl)acetamide] had a melting point of 123 to 125 °C.
To `CSC(Oc1cc(Cl)c2ncc(Br)cc2c1)C(=O)NC(C)(C)C` (stereo not drawn) [12 (62), 2-(3-bromo-8-chloro-quinolin-6-yloxy)-N-tert-butyl-2-methylsulfanyl-acetamide] belongs 160 to 161 °C.
To `CSC(Oc1cc(I)c2ncc(Br)cc2c1)C(=O)NC(C)(C)C` (stereo not drawn) [12 (62A), 2-(3-bromo-8-iodo-quinolin-6-yloxy)-N-tert-butyl-2-methylsulfanyl-acetamide] belongs 171 to 172 °C.
